Data from patent publication US8980933B2, “Combretastatin analogs for use in the treatment of cancer” (Universitat Bayreuth, priority 2010, dated 2015).
≈ marks a conversion by molar mass, not a printed value.

Tests used:
KB-3-1 cervix carcinoma = assay: Cytotoxicity, KB-3-1; assay type: cell-based; settings: Homo sapiens
Method: (§1) The compounds 9a, 9b and 9c, which are exemplary compounds of formula (III) according to the present invention, as well as the reference compound 25f were tested in a similar manner.

[1] = tested on: PtK-2 opossum kidney cells; assay: Cytotoxicity, PtK-2; assay type: cell-based; settings: PtK2; PtK-2 opossum kidney cells (non-malign)
Method: as §1

HUVEC cells = assay: Minimal inhibitory concentration in HUVEC; assay type: cell-based
Method: as §1

NHDF fibroblasts = assay: Cytotoxicity, NHDF; assay type: cell-based; settings: Homo sapiens; NHDF fibroblasts (non-malign)
Method: as §1

L929 fibroblasts = assay: Cytotoxicity, L929; assay type: cell-based; settings: Mus musculus, read-out: IC50 L-929
Method: as §1

[2] = tested on: 1411HP germ cell tumor xenografts; assay: Nude mouse xenograft model of resistant 1411HP; assay type: in vivo; settings: 1411HP xenograft model
Method: In vivo antitumor activity and tolerability of compounds 5b and 6b of the invention were studied in a nude mouse xenograft model of the resistant germ cell tumor cell line 1411HP employing Athymic Nude-Fox n1 nu/nu mice (Harlan und Winkelmann, Borchen, Germany).
The tests were carried out as follows. The mice were kept under pathogen-free conditions, fed on an autoclaved standard diet and given free access to sterilized water. Each of five mice were administered a 150 μL phosphate buffered saline suspension of 10 million 1411HP cells into the left flank to generate subcutaneous xenograft tumors. After 4 weeks one group of two mice bearing 1411HP xenografts with a volume of ca. 1 cm^3 were injected i.p. with a single dose of 30 mg/kg body weight of 5b or 6b, respectively. Two mice in the second group with xenografts of a volume of ca. 2.5 cm^3 were injected i.p. with 20 mg/kg body weight of 5b on two consecutive days. Tumor volumes were calculated by caliper measurement using the formula a^2×b×0.5 with a being the short and b the long dimension. Body weight was assessed twice weekly and daily while under therapy.

[3] = tested on: H12.1 germ cell tumor, 1411HP germ cell tumor, A2780 ovarian carcinoma, HT29 colon carcinoma, DLD1 colon carcinoma, HCT8 colon carcinoma; assay: SRB-cytotoxicity assay in a panel of tumor cell lines; assay type: cell-based, human; settings: H12.1, 1411HP
Method: The cytotoxic activity of 5b was established by standard colorimetric tests (SRB- and MTT-assays) against various tumor cell lines of different entities. For the SRB cytotoxicity assay, dose-response curves of the testicular germ cell tumor cell lines exposed to drug concentrations of 0.001-10 μM were established using the sulforhodamine-B (SRB) microcuiture colorimetric assay (Papazisis et al. Optimization of the sulforhodamine B colorimetric assay. J. Immunol. Methods 1997, 208, 151-158) and performed as described in: Müller et al. Failure of activation of caspase-9 induces a higher threshold for apoptosis and cisplatin resistance in testicular cancer. Cancer Res. 2003, 63, 513-521. Briefly, cells were seeded into 96-well plates on day 0, at cell densities previously determined to ensure exponential cell growth during the period of the experiment. On day 1, cells were treated with the drugs dissolved in medium to give the appropriate concentrations for indicated times and the percentage of surviving cells relative to untreated controls was determined on day 5.
The compounds 5b, 6b, 5f and 6f as well as the reference compound 25f (Wang et al.) were furthermore subjected to an SRB-cytotoxicity assay in a panel of tumor cell lines (H12.1 germ cell tumor, 1411HP germ cell tumor, A2780 ovarian carcinoma, HT29 colon carcinoma, DLD1 colon carcinoma, HCT8 colon carcinoma).

[4] = tested on: A2780 ovarian carcinoma xenografts; assay: A2780 ovarian carcinoma xenograft model; assay type: in vivo, mouse
[5] = Toxicity / tolerability in mice; assay type: in vivo
Method: Prior to testing compound 5b, healthy animals of this type were treated with an ascending range of doses of 5b in order to establish a toxicity profile. […] Suitable dosages were then administered in further tests in a nude mouse xenograft model of a pair of germ cell tumor cell lines, the chemoresistant cell line 1411HP and the chemosensitive cell line H12.1. These cell lines retain their individual in vitro chemosensitivities to cisplatin when grown as xenograft tumors and so may serve as a model of the clinical situation of resistance to chemotherapy (Mueller et al. Cancer Res. 2003; Mueller et al. Tumor Biol. 2006).
Compounds 5b, 6b and 6f were also tested in terms of feasibility of oral administration. Mice received a single dose of 40 mg/kg body weight of 5b, 6b or 6f, respectively. […] Then compounds 6b or 6f were given peroral as dual-dose application on two consecutive days in accordance to the i.p. treatment scheme used for the regression trials but with a 2-fold higher dose of 2×40 mg/kg body weight.

Row | Structure (SMILES) | IC50 (KB-3-1 cervix carcinoma) | IC50 [1] | minimal inhibitory concentration (MIC) HUVEC (HUVEC cells) | IC50 (NHDF fibroblasts) | IC50 (L929 fibroblasts) | vascular disrupting effect [2] | in vitro cytotoxicity compared to 25f [3] | vascular disrupting effect [4] | toxicity after oral administration ([5]; peroral dual-dose 2×40 mg/kg on two consecutive days) | toxicity after oral administration ([5]; single dose 40 mg/kg oral) | toxicity after oral administration ([5]; single dose 60 mg/kg peroral)
1 | COc1ccc(-c2ncn(C)c2-c2cc(Br)c(OC)c(OC)c2)cc1F [9a, 1-Methyl-5-(3-bromo-4,5-dimethoxyphenyl)-4-(3-fluoro-4-methoxyphenyl)imidazole] | 4.4 nM | 437 nM | 0.109 µM (≈ 0.0459 µg/mL) | 175 nM | 24 nM | – | – | – | – | – | –
2 | CCOc1ccc(-c2c(-c3cc(Cl)c(OC)c(OC)c3)ncn2C)cc1N [compound 5f, 1-methyl-5-(3-amino-4-ethoxyphenyl)-4-(3-chloro-4,5-dimethoxyphenyl)-imidazole] | – | – | – | – | – | vascular disrupting activity | further improvement of cytotoxicity | vascular disrupting activity | – | – | –
3 | CCOc1ccc(-c2c(-c3cc(Br)c(OC)c(OC)c3)ncn2C)cc1N [compound 6f, 1-methyl-5-(3-amino-4-ethoxyphenyl)-4-(3-bromo-4,5-dimethoxyphenyl)-imidazole] | – | – | – | – | – | vascular disrupting activity | further improvement of cytotoxicity | vascular disrupting activity | no signs of toxicity were observed | No signs of toxicity were observed | tolerated symptom-free
